Measured values as given in patent publication US20190352329A1, “BETA-ADRENERGIC BLOCKING COMPOUND” (KING SAUD UNIVERSITY, priority 2018, published 2019).

Assays:
beta adrenergic receptor = beta adrenergic receptor (Cavia porcellus, UniProt H0W3H1); assay: Blockade of isoprenaline inotropic effect in electrically driven guinea pig left atrium; type: cell-based; settings: result in words
Source text: Data are expressed as means±s. e. mean. IC50s for each drug were estimated through non-linear regression analysis using ISI software for a PC computer. Differences between non paired groups were compared by Student's t-test or ANOVA test with the statistical programme Stat works TM; a value of P equal or smaller than 0.05 was taken as the limit of statistical significance.
To test beta adrenergic receptor blocking effects of compounds 3a and 3b, their actions on the inotropic effects of the beta receptor agonist isoprenaline of the guinea pig left atrium were studied.
Male guinea-pigs weighing 300±400 g were killed by a blow on the head. The heart was quickly removed and placed in oxygenated Krebs-bicarbonate solution. The left atrium was carefully dissected and placed between bipolar platinum electrodes. The base of the atrium was tied to one of the electrodes and the tip to an isometric transducer connected to an amplifier and recorder (Cibertec, Madrid, Spain), with 1 g baseline tension. […]
This concentration was selected because it produced a submaximal and measurable inotropic effect that was reproducible after 7^−1° additions of isoprenaline, given at 30-min intervals. […] Each individual preparation served to provide a full concentration-response curve for a given compound, and from it IC50 was calculated.

[1] = 6-week application, daily dose of 60 mg/kg b.w., i.p.; cited from earlier work

beta adrenergic receptor, sequence (H0W3H1 1-470): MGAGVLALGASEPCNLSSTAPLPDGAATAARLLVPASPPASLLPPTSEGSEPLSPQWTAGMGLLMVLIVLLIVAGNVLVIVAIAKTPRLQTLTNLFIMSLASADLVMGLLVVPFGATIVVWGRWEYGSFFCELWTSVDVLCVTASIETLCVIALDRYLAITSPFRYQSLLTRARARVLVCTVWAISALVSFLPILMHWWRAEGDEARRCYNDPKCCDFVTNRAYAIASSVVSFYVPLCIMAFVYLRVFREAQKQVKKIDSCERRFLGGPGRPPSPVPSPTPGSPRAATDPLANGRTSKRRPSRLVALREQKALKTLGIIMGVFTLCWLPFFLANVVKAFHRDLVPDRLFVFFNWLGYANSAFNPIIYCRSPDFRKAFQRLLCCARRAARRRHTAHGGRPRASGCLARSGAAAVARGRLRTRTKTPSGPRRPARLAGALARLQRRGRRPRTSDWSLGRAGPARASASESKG

Compound	blockade of the isoprenaline inotropic response (beta adrenergic receptor)	direct cardiac effect (heart rate decrease) [1]
COC(=O)C12CCC(C)C(C)C1C1=CCC3C4(C)CCC(OCC(O)CNC(C)C)C(C)(C)C4CCC3(C)C1(C)CC2 (stereo not drawn) [Compound 3a, methyl 3-β-[2-hydroxy-3-(isopropylamino)propoxy]-urs-12-en-28-oate]	blocked the isoprenaline inotropic response almost fully	
COC(=O)C12CCC(C)C(C)C1C1=CCC3C4(C)CCC(OCC(O)CNCC(C)C)C(C)(C)C4CCC3(C)C1(C)CC2 (stereo not drawn) [Compound 3b, methyl-3-β-[2-hydroxy-3-(isobutylamino)propoxy]-urs-12-en-28-oate]	blocked the isoprenaline inotropic response almost fully	
CC1(C)CC[C@]2(C(=O)O)CC[C@]3(C)C(=CC[C@@H]4[C@@]5(C)CC[C@H](O)C(C)(C)[C@@H]5CC[C@]43C)[C@@H]2C1 [Oleanolic]		34%
